Results published in patent publication US7259170B2, “Macrolides containing pharmaceutical compositions” (Novartis AG, priority 2001, dated 2007).
Where a name gives a salt, the structure may show the parent alone. Marks after values point to notes of the source that are not given here.

System: Experimental autoimmune uveitits (EAU)
Experiment: Experimental autoimmune uveitits (EAU) test in rats
Assay type: in vivo, LEWIS rats
Conditions: for EAU 1st: Day of first signs of EAU (mean±SD) / EAU 10: Incidence of EAU on day 10 (affected animals/animals per group) / EAU POS: Number of EAU positive rats (affected animals/animals per group until end of the study) / SCORE MAX DAY: day of maximum score / SCORE MAX SCORE: Maximum score (mean of both eye lesions±SD): oral once daily; for course and intensity of the disease compared with placebo controls: oral, 0.1 mg/kg compound of formula IIa or 15 mg/kg/day compound of formula I alone, combination at the same dosage levels
[1] = Example 1, 5 rats per group, 14 days, Dosis mg/kg/day: Cpd IIa 0.1, Cpd I 15, combination 1.5 [sic] + 15
[2] = Example 1, 14 days, Dosis mg/kg/day: Cpd IIa 0.1, Cpd I 15, combination 1.5 [sic] + 15
[3] = Example 1, scores 0 to 4 for 1 eye, 14 days, Dosis mg/kg/day: Cpd IIa 0.1, Cpd I 15, combination 1.5 [sic] + 15
[4] = Example 2, 6 rats per group, 14 days (14×), mg/kg/day: Cpd IIa 0.1, Cpd I 15, combination 15 + 0.1

SMILES	EAU 1st: Day of first signs of EAU (mean±SD) [1]	EAU 10: Incidence of EAU on day 10 (affected animals/animals per group) [1]	EAU POS: Number of EAU positive rats (affected animals/animals per group until end of the study) [1]	SCORE MAX DAY: day of maximum score [2]	course and intensity of the disease compared with placebo controls (Example 1)	SCORE MAX SCORE: Maximum score (mean of both eye lesions±SD) [3]	EAU 1st: Day of first signs of EAU (mean±SD) [4]	EAU 10: Incidence of EAU on day 10 (affected animals/animals per group) [4]	EAU POS: Number of EAU positive rats (affected animals/animals per group until end of the study) [4]	SCORE MAX DAY: day of maximum score [4]	SCORE MAX SCORE: Maximum score (mean of both eye lesions±SD) [4]
CC[C@@H]1/C=C(\C)C[C@H](C)C[C@H](OC)[C@H]2O[C@@](O)(C(=O)C(=O)N3CCCC[C@H]3C(=O)O[C@H](/C(C)=C/[C@@H]3CC[C@H](Cl)[C@H](OC)C3)[C@H](C)[C@@H](O)CC1=O)[C@H](C)C[C@@H]2OC [Cpd I, 33-epi-33-chloro-FR 520]	11.8 (1.3) day	1/5	5/5	14 days	not distinctively different from placebo controls	6.8 (1.3)	11.5 (0.8) day	2/6	6/6	14 days	6.0 (2.5)
CCCCCCCCc1ccc(CCC(N)(CO)CO)cc1 [Cpd IIa, 2-amino-2[2-(4-octylphenyl)ethyl]propane-1,3-diol hydrochloride]	10.5 (0.6) day	2/5	4/4*^)	13 days	not distinctively different from placebo controls	8.0 (0.0)	11.2 (1.0) day	0/6	6/6	14 days	8.0 (0.0)
